Laboratory results taken from US20140296316A1, “HYDRATE AND CRYSTAL OF FLUORENE COMPOUNDS” (JAPAN TOBACCO INC., priority 2013, published 2014).

How the values were obtained:
[1] = Water adsorption and desorption test; type: physicochemical; settings: for hygroscopicity: conclusion of the water adsorption and desorption test; for hygroscopicity / moisture absorption under relative humidity 95%: without pre-drying
Experimental: Water adsorption and desorption test was performed using a water equilibrium measuring apparatus (SGA-100, manufactured by VTI).
A water adsorption and desorption test was performed by the following method.
Method 1 (without Pre-Drying):
Form I crystal (about 10 mg) was weighed in a quartz cell, and a weight change ratio was measured when it reached equilibrium at 25° C. and each relative humidity, by using a water equilibrium measuring apparatus (SGA-100, manufactured by VTI).
Test temperature: 25° C. Equilibrating conditions: weight change ratio was not more than 0.03% in 5 min Maximum equilibrating time: 180 min Change of relative humidity: increased from 5% to 95% at 5% intervals, and decreased from 95% to 5% at 5% intervals. Method 2 (with Pre-Drying):
Form I crystal (about 10 mg) was weighed in a quartz cell, dried under a dried nitrogen stream at 60° C., and a weight change ratio was measured when it reached equilibrium at 25° C. and each relative humidity, by using a water equilibrium measuring apparatus (SGA-100, manufactured by VTI).
Test temperature: 25° C. Equilibrating conditions: weight change ratio was not more than 0.03% in 5 min Maximum equilibrating time: 180 min Change of relative humidity: increased from 5% to 95% at 5% intervals, and decreased from 95% to 5% at 5% intervals.
In the water adsorption and desorption test, the measurement was performed under two conditions of “with pre-drying (drying before test)” and “without pre-drying (drying before test)”, wherein humidification and drying were repeated once. […] Therefore, it was assumed that pre-drying completely evaporated crystal water.

[2] = Water adsorption and desorption test; type: physicochemical; settings: for weight decrease on pre-drying: pre-dried under a dried nitrogen stream, 60° C.; for weight increase by humidification after drying: with pre-drying, humidification up to relative humidity 10%, 25° C.
human PDHK1 (hPDHK1) = target: T1, human PDHK1 (hPDHK1) (Homo sapiens, UniProt Q15118); experiment: Inhibitory action of PDHK1 activity in vitro (residual PDH activity after kinase reaction); type: biochemical; settings: PDH/hPDHK1 complex, PDHK reaction 45 min at room temperature
T1 construct: made in house; host or cells: Escherichia coli BL21(DE3), pET17b vector
T1 sequence (Q15118 29-436): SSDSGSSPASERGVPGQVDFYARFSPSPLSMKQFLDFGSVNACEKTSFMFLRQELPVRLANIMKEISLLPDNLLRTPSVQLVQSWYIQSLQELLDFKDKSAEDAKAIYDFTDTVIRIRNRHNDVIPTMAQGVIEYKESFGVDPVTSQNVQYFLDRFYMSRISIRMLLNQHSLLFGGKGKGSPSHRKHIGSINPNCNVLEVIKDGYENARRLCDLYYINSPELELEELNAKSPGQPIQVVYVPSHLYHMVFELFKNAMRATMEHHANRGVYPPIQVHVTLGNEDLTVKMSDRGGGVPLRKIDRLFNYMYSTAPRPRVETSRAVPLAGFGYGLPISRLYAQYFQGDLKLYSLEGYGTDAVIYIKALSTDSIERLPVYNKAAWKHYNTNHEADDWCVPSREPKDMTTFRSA
Experimental: (§1) The inhibitory action of PDHK activity was assessed indirectly by measuring the residual PDH activity after kinase reaction in the presence of a test compound.
In the case of human PDHK1 (hPDHK1, Genbank Accession No. L42450.1), a 1.3 kbp fragment encoding this protein was isolated from human liver cDNA by polymerase chain reaction (PCR). Modified hPDHK1 cDNA wherein FLAG-Tag sequence was added to the N terminus was prepared by PCR and cloned into a vector (pET17b-Novagen). The recombinant construct was transformed into Escherichia coli (DH5α-TOYOB0). The recombinant clones were identified, and plasmid DNA was isolated and subjected to the DNA sequence analysis. One clone which had the expected nucleic acid sequence was selected for expression work. […]
Then, 10 μL of substrates (5 mmol/L sodium pyruvate, 5 mmol/L Coenzyme A, 12 mmol/L NAD, 5 mmol/L thiamin pyrophosphate, diluted with buffer) were added. The mixture was incubated at room temperature for 90 min, and the residual PDH activity was measured.
The absorbance at 340 nm before and after PDH reaction was measured using a microplate reader to detect NADH produced by the PDH reaction. The hPDHK1 inhibition rate (%) of the test compound was calculated from the formula [{(PDH activity of the test compound−PDH activity of control)/PDH activity of blank−PDH activity of control)}×100]. […]

human PDHK2 (hPDHK2) = target: T2, human PDHK2 (hPDHK2) (Homo sapiens, UniProt Q15119); experiment: Inhibitory action of PDHK2 activity in vitro (residual PDH activity after kinase reaction); type: biochemical; settings: PDH/hPDHK2 complex, PDHK reaction 45 min at room temperature
T2 construct: made in house; host or cells: Escherichia coli BL21(DE3), pET17b vector
Experimental: as §1
The recombinant construct was transformed into Escherichia coli (DB5α-TOYOBO). The recombinant clones were identified, and plasmid DNA was isolated and subjected to the DNA sequence analysis. One clone which had the expected nucleic acid sequence was selected for expression work.
For expression of hPDHK2 activity, Escherichia coli strain BL21(DE3) cells (Novagen) were transformed with the pET17b vector containing modified hPDHK2 cDNA. The Escherichia coli were grown to an optical density 0.6 ([…]) at 30° C. Protein expression was induced by the addition of 500 μmol/L isopropyl-β-thiogalactopyranoside. […]
0.05 U/mL PDH and 0.8 μg/mL hPDHK2 were mixed in a buffer (50 mmol/L 3-morpholinopropanesulfonic acid (pH 7.0), 20 mmol/L dipotassium hydrogen phosphate, 60 mmol/L potassium chloride, 2 mmol/L magnesium chloride, 0.4 mmol/L EDTA, and 0.2% Pluronic F-68, 2 mmol/L dithiothreitol), and the mixture was incubated at 4° C. overnight to obtain a PDH/hPDHK2 complex. […] The mixture was incubated at room temperature for 90 min, and the residual PDH activity was measured. The absorbance at 340 nm before and after PDH reaction was measured using a microplate reader to detect NADH produced by the PDH reaction. […]

| SMILES | hygroscopicity [1] | moisture absorption under relative humidity 95% ([1]; 25° C.) | weight decrease on pre-drying [2] | weight increase by humidification after drying [2] | IC50 (human PDHK1 (hPDHK1)) | IC50 (human PDHK2 (hPDHK2)) | weight decrease on pre-drying ([1]; pre-dried under a dried nitrogen stream, 60° C.) | weight increase by humidification after drying ([1]; with pre-drying, humidification up to relative humidity 50%, 25° C.) |
| --- | --- | --- | --- | --- | --- | --- | --- | --- |
| CC(CO)(CO)n1cc(-c2cc(F)cc3c2-c2ccccc2[C@]3(O)C(F)(F)F)cn1 [Form V crystal of compound (Ah), 0.5 hydrate of 2-{4-[(9R)-2-fluoro-9-hydroxy-9-(trifluoromethyl)-9H-fluoren-4-yl]-pyrazol-1-yl}-2-methyl-propane-1,3-diol] | does not have hygroscopicity | remarkable moisture absorption was not found | 2.36% | 2.46% |  |  |  |  |
| CC(CO)(CO)n1cc(-c2cc(F)cc3c2-c2ccccc2[C@]3(O)C(F)(F)F)cn1 [Form I crystal of compound (Ah), 0.5 hydrate of 2-{4-[(9R)-2-fluoro-9-hydroxy-9-(trifluoromethyl)-9H-fluoren-4-yl]-pyrazol-1-yl}-2-methyl-propane-1,3-diol] | does not have hygroscopicity | remarkable moisture absorption was not found | 2.15% | 2.44% | 26 nM | 14 nM |  |  |
| Cc1cc(-c2cnn(C(CO)(CO)CO)c2)c2c(c1)[C@@](O)(C(F)(F)F)c1ccccc1-2 [Form IVb crystal of compound (Bh), 2 hydrate of 2-hydroxymethyl-2-{4-[(9R)-9-hydroxy-2-methyl-9-(trifluoromethyl)-9H-fluoren-4-yl]-pyrazol-1-yl}-propane-1,3-diol] | does not have hygroscopicity | remarkable moisture absorption was not found |  |  |  | 20 nM | 7.75% | 7.93% |
